Assay results: patent US6548492B1, “Process for formulation of carbapenem antibiotic compositions” (Merck & Co., Inc., priority 1999, dated 2003)

Legend:
[1] = Stability and hygroscopicity of the bulk monosodium salt carbapenem on storage; assay type: physicochemical
Protocol: and a process for the preparation thereof.
During the manufacture of bulk compound products such as beta-lactam and carbapenem antibiotics, the pharmaceutical compound is prepared by chemical synthesis from raw materials in large quantities. As with many carbapenem compounds, the compound in accordance with formula I is prepared in large batches as a monosodium salt. The compound is a weakly crystalline solid, hygroscopic at ambient conditions, and is unstable at room and refrigerated temperatures. Therefore, the bulk compound must be stored at a temperature of about −20° C. to prevent degradation into dimer and open ring by-products.

[2] = cited from earlier work

Structure (SMILES): CC(O)C1C(=O)N2C(C(=O)[O-])=C(SC3CNC(C(=O)Nc4cccc(C(=O)O)c4)C3)C(C)C12.[Na+] (stereo not shown) [formula I]
- hygroscopicity ([1]; ambient conditions, weakly crystalline solid): hygroscopic
- stability at room and refrigerated temperatures ([1]; bulk monosodium salt): unstable
- stability at ambient conditions ([2]; 20° C. and 1 atmosphere, monosodium salt): relatively unstable
- stability at temperatures above about −20° C. ([2]; undergoes dimerization and hydrolysis to dimers and open ring by-products): remains unstable
